Experiment: GSH arylation rate constants (NMR; UV-vis for fast warheads)
Format: physicochemical
Set-up: key to rate constant (k) for the reaction with GSH / k: NR = no reaction
Conditions: for reactivity with GSH (in words): up to 6 h; for k: Table S8, rate constants obtained at pH = 7; for k change (vs ref): ratio to rate constant of 4q, acceleration (+) or deceleration (-)
Text: We employed nuclear magnetic resonance (NMR) and UV–vis to quantify the reactivity of our 2-SP derivatives and other representative electrophiles (Figure 2) against cysteine. NMR allowed straightforward determination of reaction rate constants through dual monitoring of the consumption of the warhead and formation of the product by integration of their respective NMR signals (Figures S1–S3). It simultaneously provided a direct readout on reaction specificity and hydrolytic stability of the warhead. All measurements were carried out in KPi buffer in the presence of 5% d^6-dmso, which is generally well-tolerated by a wide range of proteins in in vitro studies. N-acetylcysteine methylester (NACME) and L-glutathione (GSH) are useful model cysteine nucleophiles for in vitro studies of electrophilic agents.[32] Mixing reference electrophile 2-methylsulfonylpyrimidine (4q) with NACME or GSH in a 1:10 ratio (pseudo-first-order conditions) allowed extraction of accurate and reproducible second order rate constants (k).
Figure 3 In vitro determination of electrophilic reactivity of compounds. (A) NMR assay setup for warhead/GSH reaction rate constant determination and chemoselectivity monitoring, over a 6 h time scale. Purple bead = GSH. Hydrolytic stability was determined in the same way over 36 h. d^4-Trimethylsilylpropanoate (TMSP, blue box) was used as an internal standard for monitoring the warhead solubility. Second-order reaction rate constants (k) were obtained from their pseudo-first-order counterparts (k′), by time-dependent normalized integration of the disappearing warhead signals. […] (B) Experimental second-order rate constants (y axis, log10 scale) for the reaction of representative 2-SP derivatives (left, 11 out of ca. 40 examples) and previously reported heteroarylsulfones (right) with GSH in a KPi buffer, pH 7.0, 20 °C. All rate constants were calculated as an average of at least two independent measurements. Numerical values and standard deviations at both pH 7.0 and 6.5, along with a full list of 2-SPs and other electrophile types tested, are presented in Tables S2–S6 and Figure S4. The horizontal dashed line marks the reaction rate of 2-methylsulfonylpyrimidine at pH 7.0, as a reference when comparing with other reagents (see main text).
To establish an accurate structure–reactivity profile of 2-SP reagents, we systematically determined their reaction rate constants for the arylation of GSH by NMR, at pH 7.0 and 6.5. This was a prerequisite to (i) quantify the influence of substitution on reaction rates; (ii) accurately assess the tunability and chemoselectivity of 2-SPs for cysteine arylation; (iii) determine the influence of pH on the reaction rates to further inform on the precise reaction mechanism; and (iv) benchmark the overall performance of 2-SPs with those of previously reported fast reacting heteroarylsulfones and other common cysteine reactive warheads (Figure 2C,D).

[1] = pH 6.5, by NMR, KPi buffer, 5% DMSO-d6
[2] = pH 7.0, by NMR, KPi buffer, 5% DMSO-d6

SMILES | rate constant (k) for the reaction with GSH [1] | rate constant (k) for the reaction with GSH [2] | other results
CSc1ncc(Cl)cn1 [2s] | NR | NR | –
c1ccc(Sc2ncccn2)cc1 [3d] | – | NR | –
CSc1ncc(F)cn1 [2r] | NR | NR | –
COC(=O)c1cnc(SC)nc1 [2y] | NR | Ca. 0.020 mM-1.s-1 | –
Cc1ccnc(Cl)n1 [1c] | NR | NR | –
CSc1nccc(-c2ccccc2)n1 [2e] | NR | NR | –
COc1cnc(Cl)nc1 [1n] | NR | NR | –
COc1cc(OC)nc(Cl)n1 [1f] | NR | NR | –
Nc1ccnc(Cl)n1 [1g] | NR | NR | –
O=[N+]([O-])c1cnc(Cl)nc1 [1w] | NR | NR | –
Clc1nccc(-c2ccccc2)n1 [1e] | NR | NR | –
COC(=O)c1ccnc(SC)n1 [2k] | NR | NR | –
Clc1ncccn1 [1q] | NR | NR | reactivity with GSH (in words) (KPi buffer): failed to induce observable arylation of GSH; k: NR
CSc1nccc(C(F)(F)F)n1 [2l] | NR | NR | –
COc1ccnc(SC)n1 [2b] | NR | NR | –
Cc1cc(C)nc(Cl)n1 [1a] | NR | NR | –
CSc1nccc(N)n1 [2g] | NR | NR | –
CSc1nccc(C)n1 [2c] | NR | NR | –
FC(F)(F)c1ccnc(Cl)n1 [1l] | 0.00045 M⁻¹ s⁻¹ | 0.001 ± 0.0005 M⁻¹ s⁻¹ | –
O=C(O)c1cnc(Cl)nc1 [1v] | Ca. 0.14 mM-1.s-1 | Ca. 0.65 mM-1.s-1 | –
Clc1ncc(-c2ccccc2)cn1 [1p] | NR | NR | –

SMILES | rate constant (k) for the reaction with GSH [1] | rate constant (k) for the reaction with GSH [2] | other results
CS(=O)(=O)c1ncc(Cl)c(C(=O)O)n1 [4h] | – | – | k change (vs ref) (pH 7.0): +7 fold
COc1ccnc(Cl)n1 [1b] | NR | NR | –
COC(=O)c1ccnc(Cl)n1 [1k] | NR | NR | –
CSc1ncc(Cl)c(C(=O)O)n1 [2h] | NR | NR | –
Clc1ncc(Br)cn1 [1t] | Ca. 0.025 mM-1.s-1 | Ca. 0.15 mM-1.s-1 | –
O=S(=O)(F)c1ccccc1 [compound 26, reference compound] | – | NR | reactivity with GSH (in words) (KPi buffer): none
CC1(C)S[C@@H]2[C@H](N)C(=O)N2[C@H]1C(=O)O [compound 27, reference compound] | – | NR | reactivity with GSH (in words) (KPi buffer): none
c1ccc(C2CO2)cc1 (stereo not drawn) [compound 24, reference compound] | – | NR | reactivity with GSH (in words) (KPi buffer): none
C=CC(=O)Nc1ccccc1 [compound 22, reference compound] | – | NR | reactivity with GSH (in words) (KPi buffer): none
COc1cc(OC)nc(SC)n1 [2f] | NR | NR | –
O=C1C=CC(=O)N1Cc1ccccc1 [compound 21, N-benzylmaleimide, reference compound] | – | Multiple products | reactivity with GSH (in words) (KPi buffer): heterogeneous mixture of succinimidyl products; second order rate constant k with GSH (pH 7.0, KPi buffer): > 0.5 M^–1 s^–1
COC(=O)c1cnc(Cl)nc1 [1y] | Ca. 11 mM-1.s-1 | Ca. 55 mM-1.s-1 | rate relative to 5-NO2-MSBT / nitro-MSBT (10) (in words) (in vitro): an order of magnitude
CSc1nccc(C(N)=O)n1 [2j] | NR | NR | –
OB1OCc2ccccc21 [compound 23, reference compound] | – | – | rate constant (k) for the reaction with GSH (pH 7): NR
O=C(O)c1ccnc(Cl)n1 [1d] | NR | NR | –
CSc1ncc(Br)cn1 [2t] | NR | NR | –
Brc1ncccn1 [compound 14, reference compound] | – | – | k: NR
O=C(O)c1nc(Cl)ncc1Br [1i] | NR | NR | –
Fc1ncccn1 [compound 13, reference compound] | – | NR | k: NR
COc1cnc(SC)nc1 [2n] | NR | NR | –
CS(=O)(=O)c1cnccn1 [compound 18] | NR | NR | reactivity with GSH (in words) (KPi buffer): completely switched off reactivity

SMILES | rate constant (k) for the reaction with GSH [1] | rate constant (k) for the reaction with GSH [2] | other results
NC(=O)c1ccnc(Cl)n1 [1j] | NR | NR | –
Cc1cnc(Cl)nc1 [1o] | NR | NR | –
O=C(c1ccccc1)C(F)(F)F [compound 25, reference compound] | – | NR | reactivity with GSH (in words) (KPi buffer): none
CS(=O)(=O)c1ncc(F)cn1 [4r] | Multiple | Multiple | –
CSc1ncc([N+](=O)[O-])cn1 [2m] | NR | NR | –
Nc1cnc(Cl)nc1 [1m] | NR | NR | –
CSc1nc(C)cc(C)n1 [2a] | NR | NR | –
CSc1ncc(C)cn1 [2o] | NR | NR | –
CC(C)(C)Sc1ncccn1 [3a] | – | NR | –
Oc1ncccn1 [compound 16, reference compound] | – | NR | –
Clc1cnc(Cl)nc1 [1s] | Ca. 0.07 mM-1.s-1 | Ca. 0.26 mM-1.s-1 | –
Nc1ncccn1 [compound 17, reference compound] | – | NR | –
O=C(O)c1nc(Cl)ncc1Cl [1h] | NR | NR | –
CSc1ncccn1 [2q] | NR | NR | k: NR
CS(=O)(=O)c1nc2ccc([N+](=O)[O-])cc2s1 [compound 10, 2-(methylsulfonyl)-6-nitrobenzo[d]thiazole, reference compound] | – | – | rate constant (k) for the reaction with GSH (pH 6.5, measured by UV titrations): 290 ± 130 M⁻¹ s⁻¹; second order rate constant k with GSH (pH 7.0, KPi buffer): ≈ 1200 M^–1 s^–1; k change (vs ref) (pH 7.0): +44,000 fold
CCCCSc1ncccn1 [3c] | – | NR | –
CSc1ncc(Br)c(C(=O)O)n1 [2i] | NR | NR | –
Fc1cnc(Cl)nc1 [1r] | NR | NR | –
CSc1nccc(C(=O)O)n1 [2d] | NR | NR | –
CSc1ncc(C(F)(F)F)cn1 [2x] | NR | NR | –

— PMC10515483, “Structure–Reactivity Studies of 2-Sulfonylpyrimidines Allow Selective Protein Arylation” (Bioconjugate Chemistry, 2023)
